Laboratory results: ChEMBL document CHEMBL1201862, “PubChem BioAssay data set” (2004)
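Protocol summary: plate cells (96-well), add compound at 5 concentrations, incubate 48 h, interpolate endpoints linearly. GI50: concentration for 50% inhibition of growth.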 Activity calls are given as the source filed them. Cut-off read from the data, not from the text of the source: active = GI50 up to about 1.1 µM and inactive = higher.

Legend:
Assay in all cases: NCI anticancer screen, dose series, 48 h
ACHN = tested on: ACHN
BT-549 = tested on: BT-549
CAKI-1 = tested on: CAKI-1
DU-145 = tested on: DU-145
EKVX = tested on: EKVX
HCT-116 = tested on: HCT-116
HOP-62 = tested on: HOP-62
M14 = tested on: M14
MDA-MB-435 = tested on: MDA-MB-435
NCI-H522 = tested on: NCI-H522
OVCAR-3 = tested on: OVCAR-3
OVCAR-4 = tested on: OVCAR-4
OVCAR-5 = tested on: OVCAR-5
OVCAR-8 = tested on: OVCAR-8
PC-3 = tested on: PC-3
RXF 393 = tested on: RXF 393
SF-295 = tested on: SF-295
SF-539 = tested on: SF-539
SNB-19 = tested on: SNB-19
SNB-75 = tested on: SNB-75

SMILES | GI50 (ACHN) | GI50 (BT-549) | GI50 (CAKI-1) | GI50 (DU-145) | GI50 (EKVX) | GI50 (HCT-116) | GI50 (HOP-62) | GI50 (M14) | GI50 (MDA-MB-435) | GI50 (NCI-H522) | GI50 (OVCAR-3) | GI50 (OVCAR-4) | GI50 (OVCAR-5) | GI50 (OVCAR-8) | GI50 (PC-3) | GI50 (RXF 393) | GI50 (SF-295) | GI50 (SF-539) | GI50 (SNB-19) | GI50 (SNB-75)
COC1CC(C)([N+](=O)[O-])C(O)C(C)O1 (stereo not given) | > 100 µM (inactive) | 91.6 µM (inactive) | > 100 µM (inactive) | > 100 µM (inactive) | > 100 µM (inactive) | > 100 µM (inactive) | > 100 µM (inactive) | > 100 µM (inactive) | > 100 µM (inactive) | > 100 µM (inactive) | > 100 µM (inactive) | > 100 µM (inactive) | > 100 µM (inactive) | > 100 µM (inactive) | > 100 µM (inactive) | > 100 µM (inactive) | > 100 µM (inactive) | > 100 µM (inactive) | > 100 µM (inactive) | > 100 µM (inactive)
COc1cc(N(C)C)ccc1C=c1c2ccccc2n2c1cc(-c1ccccc1)[n+]2C | 0.29 µM (active) | 0.34 µM (active) | 0.472 µM (active) | 0.323 µM (active) | 0.575 µM (active) | 0.175 µM (active) | 0.275 µM (active) | 0.411 µM (active) | 0.358 µM (active) | 0.169 µM (active) | 0.392 µM (active) | 0.453 µM (active) | 0.566 µM (active) | 0.163 µM (active) | 0.233 µM (active) | 0.345 µM (active) | 0.336 µM (active) | 0.0813 µM (active) | 0.372 µM (active) | 0.33 µM (active)
O=c1c(NO)c([N+](=O)[O-])cnn1-c1ccccc1 | 8.53 µM (inactive) | 1.58 µM (inactive) | 5.53 µM (inactive) | 13.8 µM (inactive) | 11.6 µM (inactive) | 2.62 µM (inactive) | 8.83 µM (inactive) | 1.99 µM (inactive) | 1.88 µM (inactive) | 1.97 µM (inactive) | 2.98 µM (inactive) | 3.81 µM (inactive) | 7.28 µM (inactive) | 2.63 µM (inactive) | 1.55 µM (inactive) | 5.92 µM (inactive) | 12.2 µM (inactive) | 15.2 µM (inactive) | 10.9 µM (inactive) | 14.6 µM (inactive)
COc1ccc(C(C)c2cc3c(cc2O)OCO3)cc1 (stereo not given) | 19.7 µM (inactive) | 16.7 µM (inactive) | 25.2 µM (inactive) | 18.6 µM (inactive) | 20.3 µM (inactive) | 15.9 µM (inactive) | 16.4 µM (inactive) | 13.8 µM (inactive) | 4.56 µM (inactive) | 11.4 µM (inactive) | 13.9 µM (inactive) | 31.3 µM (inactive) | 20.6 µM (inactive) | 16.7 µM (inactive) | 15.7 µM (inactive) | 14.8 µM (inactive) | 14.3 µM (inactive) | 16.9 µM (inactive) | 23.5 µM (inactive) | 20.3 µM (inactive)
COc1cccc(/C=N/[N+](C)(C)C)c1O | > 10 µM (inactive) | > 10 µM (inactive) | > 10 µM (inactive) | > 10 µM (inactive) | > 10 µM (inactive) | > 10 µM (inactive) | > 10 µM (inactive) | > 10 µM (inactive) | > 10 µM (inactive) | > 10 µM (inactive) | > 10 µM (inactive) | > 10 µM (inactive) | > 10 µM (inactive) | > 10 µM (inactive) | > 10 µM (inactive) | > 10 µM (inactive) | > 10 µM (inactive) | > 10 µM (inactive) | > 10 µM (inactive) | > 10 µM (inactive)
COc1ccc(NC(=O)CC(=O)NNC(Sc2ccccc2)c2cc(/N=N/c3ccc(Br)cc3)ccc2O)cc1 (stereo not given) | > 10 µM (inactive) | > 10 µM (inactive) | > 10 µM (inactive) | > 10 µM (inactive) | > 10 µM (inactive) | 4.81 µM (inactive) | > 10 µM (inactive) | > 10 µM (inactive) | > 10 µM (inactive) | > 10 µM (inactive) | 2.21 µM (inactive) | 9.12 µM (inactive) | > 10 µM (inactive) | > 10 µM (inactive) | > 10 µM (inactive) | > 10 µM (inactive) | > 10 µM (inactive) | > 10 µM (inactive) | > 10 µM (inactive) | 5.52 µM (inactive)
COc1cc(-c2[nH]ccc2Cl)oc1C1=C2N=C3C=C2C(C(C)C)C1CCCCCCCC3 (stereo not given) | 0.971 µM (active) | 1.1 µM (active) | 2 µM (inactive) | 0.614 µM (active) | 0.944 µM (active) | 0.307 µM (active) | 0.774 µM (active) | 0.438 µM (active) | 0.401 µM (active) | 0.407 µM (active) | 0.61 µM (active) | 0.863 µM (active) | 0.735 µM (active) | 0.805 µM (active) | 0.332 µM (active) | 0.904 µM (active) | 1.15 µM (inactive) | 0.869 µM (active) | 1.69 µM (inactive) | 1.12 µM (inactive)
O=C(COc1ccc(Cl)c(Cl)c1)Nc1ccc[n+](Cc2ccc(S(=O)(=O)F)c(Cl)c2)c1 | > 100 µM (inactive) | > 100 µM (inactive) | > 100 µM (inactive) | > 100 µM (inactive) | > 100 µM (inactive) | > 100 µM (inactive) | > 100 µM (inactive) | > 100 µM (inactive) | > 100 µM (inactive) | > 100 µM (inactive) | > 100 µM (inactive) | > 100 µM (inactive) | > 100 µM (inactive) | > 100 µM (inactive) | > 100 µM (inactive) | > 100 µM (inactive) | > 100 µM (inactive) | > 100 µM (inactive) | > 100 µM (inactive) | > 100 µM (inactive)
CCOC(=O)c1cccc(NC(=O)CCl)c1 | 3.48 µM (inactive) | 4.45 µM (inactive) | 1.88 µM (inactive) | 9.44 µM (inactive) | 3.18 µM (inactive) | 2.8 µM (inactive) | 2.44 µM (inactive) | 8.61 µM (inactive) | 2.38 µM (inactive) | 1.68 µM (inactive) | 1.86 µM (inactive) | 2.37 µM (inactive) | 7 µM (inactive) | 3.55 µM (inactive) | 6.1 µM (inactive) | 3 µM (inactive) | 12.3 µM (inactive) | 2.34 µM (inactive) | 28.6 µM (inactive) | 2.77 µM (inactive)
O=c1oc2ccccc2cc1-c1csc(Nc2ccc(F)cc2)n1 | 8.55 µM (inactive) | 6.47 µM (inactive) | 2.94 µM (inactive) | 2.89 µM (inactive) | 1.97 µM (inactive) | 2.33 µM (inactive) | 2.99 µM (inactive) | 4.25 µM (inactive) | 4.32 µM (inactive) | 1.91 µM (inactive) | 6.55 µM (inactive) | 7.31 µM (inactive) | 8.38 µM (inactive) | 2.77 µM (inactive) | 5.43 µM (inactive) | 6.56 µM (inactive) | 3.62 µM (inactive) | 1.91 µM (inactive) | 8.15 µM (inactive) | 2.07 µM (inactive)
O=c1[nH]c2c(Nc3c4ccccc4nc4ccccc34)c([N+](=O)[O-])c(Nc3c4ccccc4nc4ccccc34)c([N+](=O)[O-])c2[nH]1 | 0.6 µM (active) | 3.51 µM (inactive) | 2.15 µM (inactive) | 2.67 µM (inactive) | 1.82 µM (inactive) | 0.687 µM (active) | 1.69 µM (inactive) | 1.84 µM (inactive) | 2.15 µM (inactive) | 1.09 µM (active) | 2.15 µM (inactive) | 2.35 µM (inactive) | 1.8 µM (inactive) | 1.21 µM (inactive) | 2.05 µM (inactive) | 2.42 µM (inactive) | 2.41 µM (inactive) | 2.61 µM (inactive) | 2.64 µM (inactive) | 2.48 µM (inactive)
COC(=O)/C(C#N)=C(\Nc1ccccc1)N1CCOCC1 | > 100 µM (inactive) | > 100 µM (inactive) | > 100 µM (inactive) | > 100 µM (inactive) | > 100 µM (inactive) | > 100 µM (inactive) | > 100 µM (inactive) | > 100 µM (inactive) | > 100 µM (inactive) | > 100 µM (inactive) | > 100 µM (inactive) | > 100 µM (inactive) | > 100 µM (inactive) | > 100 µM (inactive) | > 100 µM (inactive) | > 100 µM (inactive) | > 100 µM (inactive) | > 100 µM (inactive) | > 100 µM (inactive) | > 100 µM (inactive)
N=C(N)Nc1ccc(-c2ccc(NC(=N)N)cc2)cc1 | 45.3 µM (inactive) | 45.8 µM (inactive) | 41.1 µM (inactive) | 25.9 µM (inactive) | 40.3 µM (inactive) | 28.8 µM (inactive) | 16.7 µM (inactive) | 36.1 µM (inactive) | 55 µM (inactive) | 32.2 µM (inactive) | 22 µM (inactive) | 60.7 µM (inactive) | 11.9 µM (inactive) | 43.8 µM (inactive) | 15.7 µM (inactive) | 22.4 µM (inactive) | 17.8 µM (inactive) | 20.9 µM (inactive) | 41.4 µM (inactive) | 9.12 µM (inactive)
Cc1cc(C)c2c(=N)c3ccccc3n(CCCCCCO)c2n1 | 1.36 µM (inactive) | 6.89 µM (inactive) | 2.48 µM (inactive) | 5.48 µM (inactive) | 2.82 µM (inactive) | 3.11 µM (inactive) | 4.53 µM (inactive) | 4.22 µM (inactive) | 4.38 µM (inactive) | 1.44 µM (inactive) | 6.55 µM (inactive) | 2.45 µM (inactive) | 4.91 µM (inactive) | 1.17 µM (inactive) | 2.21 µM (inactive) | 3.21 µM (inactive) | 3.36 µM (inactive) | 2.33 µM (inactive) | 5.6 µM (inactive) | 1.88 µM (inactive)
